In the NIST ThermoML archive (doi:10.1016/j.jct.2012.09.012):
Numbers after ± are expanded uncertainties.

Experiment: xn = mol fraction of the nth substance listed
Conditions: Liquid, Vibrating tube method

CC1=CC[C@H]2C[C@@H]1C2(C)C [(S)-2-pinene] + C=C1CCC2CC1C2(C)C
mass density [kg/m3]
Conditions	x1 = 0.1044	x1 = 0.1926	x1 = 0.3036	x1 = 0.3949	x1 = 0.502	x1 = 0.6052	x1 = 0.7022	x1 = 0.7983	x1 = 0.9028	x1 = 1
328.15 K, 20000 kPa	857.2 ± 1.1	855.9 ± 1.1	855 ± 1.1	853.7 ± 1.1	852.5 ± 1.1	851.3 ± 1.1	850.2 ± 1.2	849.1 ± 1.2	847.9 ± 1.2	846.7 ± 1.2
328.15 K, 25000 kPa	860.6 ± 1.1	859.5 ± 1.1	858.3 ± 1.1	857.2 ± 1.1	856.1 ± 1.1	854.9 ± 1.1	853.8 ± 1.2	852.7 ± 1.2	851.5 ± 1.2	850.4 ± 1.2
328.15 K, 30000 kPa	864.1 ± 1.1	863.1 ± 1.1	862 ± 1.1	860.8 ± 1.1	859.6 ± 1.1	858.5 ± 1.2	857.4 ± 1.2	856.3 ± 1.2	855.1 ± 1.2	854 ± 1.3
328.15 K, 35000 kPa	867.5 ± 1.1	866.6 ± 1.1	865.4 ± 1.1	864.3 ± 1.1	863.1 ± 1.1	861.9 ± 1.2	860.9 ± 1.2	859.8 ± 1.2	858.6 ± 1.2	857.5 ± 1.3
328.15 K, 40000 kPa	870.8 ± 1.1	870 ± 1.1	868.9 ± 1.1	867.7 ± 1.1	866.6 ± 1.2	865.5 ± 1.2	864.3 ± 1.2	863.4 ± 1.2	862.1 ± 1.3	861.1 ± 1.3
343.15 K, 20000 kPa	846.7 ± 1.1	845.5 ± 1.1	844.3 ± 1.1	843.2 ± 1.1	841.9 ± 1.1	840.7 ± 1.1	839.4 ± 1.2	838.3 ± 1.2	837 ± 1.2	835.9 ± 1.2
343.15 K, 25000 kPa	850.5 ± 1.1	849.3 ± 1.1	848.1 ± 1.1	847 ± 1.1	845.7 ± 1.1	844.6 ± 1.1	843.3 ± 1.2	842.1 ± 1.2	840.9 ± 1.2	839.7 ± 1.2
343.15 K, 30000 kPa	854.2 ± 1.1	853 ± 1.1	851.9 ± 1.1	850.9 ± 1.1	849.6 ± 1.1	–	–	–	–	–
